Laboratory results: article PMC8343220, “The selectivity of α‐adrenoceptor agonists for the human α1A, α1B, and α1D‐adrenoceptors” (Pharmacology Research & Perspectives, 2021)
Read-outs that look alike come from different tables or passages of the source. Blank lines part the entries; values can stand above or below the compound they belong to.

How the values were obtained:
[1] = system: parental CHO cell line without any transfected receptors; test: Forskolin‐stimulated cAMP accumulation, parent CHO cells without transfected receptors; assay type: cell-based, Chinese hamster; conditions: CHO cells without transfected receptors
[2] = system: parental CHO cell line without any transfected receptors; test: ERK1/2‐phosphorylation, parent CHO cells without transfected receptors; assay type: cell-based, Chinese hamster; conditions: for ERK1/2-phosphorylation % PDBu: CHO cells without transfected receptors, maximal response as % of PDBu (10μM) response, mean ± s.e.m.
[3] = biological target: T1, human α1B‐adrenoceptor (Homo sapiens, UniProt P35368); test: ERK1/2‐phosphorylation (Surefire Alphascreen), CHO‐α1B cells; assay type: cell-based
T1 construct: expressed in transfected cells; host or cells: CHO-K1
T1 sequence (P35368 1-520): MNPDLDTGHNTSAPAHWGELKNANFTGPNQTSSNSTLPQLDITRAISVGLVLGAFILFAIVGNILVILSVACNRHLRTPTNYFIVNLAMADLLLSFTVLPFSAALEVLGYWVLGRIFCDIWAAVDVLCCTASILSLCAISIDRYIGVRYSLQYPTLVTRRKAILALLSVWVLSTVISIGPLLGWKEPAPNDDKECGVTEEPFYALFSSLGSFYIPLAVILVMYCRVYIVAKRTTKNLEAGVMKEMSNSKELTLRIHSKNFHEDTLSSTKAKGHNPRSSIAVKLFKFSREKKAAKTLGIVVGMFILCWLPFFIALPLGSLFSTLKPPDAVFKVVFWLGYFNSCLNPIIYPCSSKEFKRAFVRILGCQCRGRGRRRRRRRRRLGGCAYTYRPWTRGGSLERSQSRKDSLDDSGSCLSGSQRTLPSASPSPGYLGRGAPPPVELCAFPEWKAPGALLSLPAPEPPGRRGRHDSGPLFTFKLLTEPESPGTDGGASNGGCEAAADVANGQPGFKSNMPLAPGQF

[4] = biological target: T1, human α1B‐adrenoceptor; test: Intracellular free calcium mobilization, CHO‐α1B cells; assay type: cell-based; conditions: for Intracellular calcium release % ionomycin: CHO‐α1B cells, maximal response as % of 10 µM ionomycin response
[5] = biological target: T1, human α1B‐adrenoceptor; test: ^3H‐cAMP accumulation, CHO‐α1B cells; assay type: cell-based; conditions: CHO‐α1B cells; % forskolin maximum response
[6] = biological target: T2, human α1A‐adrenoceptor (Homo sapiens, UniProt P35348); test: ^3H‐cAMP accumulation, CHO‐α1A cells; assay type: cell-based; conditions: CHO‐α1A cells; for cAMP accumulation % forskolin: % of 10 µM forskolin response
T2 construct: expressed in transfected cells; host or cells: CHO-K1
T2 sequence (P35348 1-466): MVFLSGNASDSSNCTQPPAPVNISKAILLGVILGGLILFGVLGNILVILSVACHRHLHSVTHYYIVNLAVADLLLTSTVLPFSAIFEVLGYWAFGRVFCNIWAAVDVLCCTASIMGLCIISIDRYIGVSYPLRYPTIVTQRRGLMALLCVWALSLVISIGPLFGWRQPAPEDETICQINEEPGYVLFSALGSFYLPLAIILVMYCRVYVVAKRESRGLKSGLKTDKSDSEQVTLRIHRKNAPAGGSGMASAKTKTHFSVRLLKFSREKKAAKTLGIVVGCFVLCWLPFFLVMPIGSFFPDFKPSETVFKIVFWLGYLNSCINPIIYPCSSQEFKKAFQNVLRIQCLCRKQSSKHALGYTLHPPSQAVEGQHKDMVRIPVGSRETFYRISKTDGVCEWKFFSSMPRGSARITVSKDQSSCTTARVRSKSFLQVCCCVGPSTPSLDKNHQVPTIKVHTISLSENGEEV

[7] = biological target: T3, human α1D‐adrenoceptor (full length) (Homo sapiens, UniProt P25100); test: ERK1/2‐phosphorylation (Surefire Alphascreen), CHO‐α1D cells; assay type: cell-based
T3 construct: human α1D‐adrenoceptor (full length) were used; expressed in transfected cells; host or cells: CHO-K1
T3 sequence (P25100 1-572): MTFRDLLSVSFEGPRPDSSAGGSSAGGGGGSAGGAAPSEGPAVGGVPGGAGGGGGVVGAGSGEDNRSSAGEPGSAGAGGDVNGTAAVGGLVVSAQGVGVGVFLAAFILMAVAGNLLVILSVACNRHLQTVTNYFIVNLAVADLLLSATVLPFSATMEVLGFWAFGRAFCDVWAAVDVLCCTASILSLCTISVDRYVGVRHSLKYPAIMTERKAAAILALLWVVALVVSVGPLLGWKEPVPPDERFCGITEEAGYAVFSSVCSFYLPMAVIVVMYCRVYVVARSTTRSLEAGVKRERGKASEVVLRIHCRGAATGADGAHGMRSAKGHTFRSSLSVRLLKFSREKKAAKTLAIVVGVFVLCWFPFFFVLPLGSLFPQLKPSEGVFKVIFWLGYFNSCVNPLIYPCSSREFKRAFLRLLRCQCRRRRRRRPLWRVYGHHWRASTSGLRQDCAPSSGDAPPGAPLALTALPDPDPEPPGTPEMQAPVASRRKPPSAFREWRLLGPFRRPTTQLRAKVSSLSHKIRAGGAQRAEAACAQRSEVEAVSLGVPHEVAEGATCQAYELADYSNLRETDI

[8] = biological target: T3, human α1D‐adrenoceptor (full length); test: Intracellular free calcium mobilization, CHO‐α1D cells; assay type: cell-based
[9] = biological target: T2, human α1A‐adrenoceptor; test: Intracellular free calcium mobilization, CHO‐α1A cells; assay type: cell-based
[10] = biological target: T2, human α1A‐adrenoceptor; test: ERK1/2‐phosphorylation (Surefire Alphascreen), CHO‐α1A cells; assay type: cell-based
[11] = biological target: T2, human α1A‐adrenoceptor; test: ^3H‐cAMP accumulation in the presence of 10 μM forskolin, CHO‐α1A cells; assay type: cell-based; conditions: CHO‐α1A cells; for cAMP accumulation (in presence of forskolin) Fold increase: fold increase of the forskolin response
[12] = biological target: T3, human α1D‐adrenoceptor (full length); test: ^3H‐prazosin whole‐cell radioligand binding, CHO‐α1D cells
[13] = biological target: T1, human α1B‐adrenoceptor; test: ^3H‐prazosin whole‐cell radioligand binding, CHO‐α1B cells
[14] = biological target: T2, human α1A‐adrenoceptor; test: ^3H‐prazosin whole‐cell radioligand binding, CHO‐α1A cells
[15] = CHO‐α1B cells, maximal response as % PDBu response, for bi‐phasic responses the initial stimulatory part
[16] = CHO‐α1D cells, response at 100 µM ligand (no EC50 given)

- ERK1/2‐phosphorylation % PDBu [3, 15]: 85.8 ± 6.0%
- Intracellular calcium release % ionomycin [4]: 62.5 ± 2.9%
- cAMP accumulation % forskolin [5]: 53.0 ± 7.5%
Compound: NCCc1ccc(O)c(O)c1 [Dopamine]
- cAMP accumulation (in presence of forskolin) Log EC50 [1]: No response
- ERK1/2-phosphorylation % PDBu [2]: No response

- cAMP accumulation % forskolin [6]: 2.6 ± 0.4%
- ERK1/2‐phosphorylation % PDBu at 100 µM [7, 16]: 2.2 ± 1.3%
- Intracellular calcium release % Ionomycin at 100 µM [8, 16]: 5.7 ± 0.7%
- Intracellular calcium release % ionomycin ([9]; CHO‐α1A cells, maximal response as % of 10 µM ionomycin): 25.9 ± 2.1%
- ERK1/2‐phosphorylation % PDBu ([10]; CHO‐α1A cells, % of 10 µM PDBu, ^a bi‐phasic: initial stimulatory part): 64.9 ± 2.4%
- ERK1/2‐phosphorylation % PDBu [3, 15]: 31.3 ± 2.2%
- Intracellular calcium release % ionomycin [4]: 25.7 ± 3.0%
- cAMP accumulation % forskolin [5]: 2.4 ± 0.3%
Compound: c1ccc2c(c1)OCC(C1=NCCN1)O2 (centres unmarked) [Idazoxan]
- cAMP accumulation (in presence of forskolin) Log EC50 [1]: No response
- ERK1/2-phosphorylation % PDBu [2]: No response

Compound: CN1C[C@H](C(=O)N[C@]2(C)O[C@@]3(O)[C@@H]4CCCN4C(=O)[C@H](Cc4ccccc4)N3C2=O)C[C@@H]2c3cccc4[nH]cc(c34)C[C@H]21 [Dihydroergotamine]
- cAMP accumulation (in presence of forskolin) Log EC50 ([11]; 10 μM forskolin): No response
- cAMP accumulation (in presence of forskolin) Fold increase [11]: No response
- cAMP accumulation (in presence of forskolin) % forskolin-stim cAMP at 10μM ([1]; response at 10μM only, EC50 not obtainable, % of forskolin-stimulated cAMP): 77.4 ± 1.9%
- cAMP accumulation Log EC50 ([6]; 5 h): No response
- cAMP accumulation % forskolin [6]: No response
- Emax ([2]; Cricetulus griseus, CHO, read-out: ERK1/2-phosphorylation % PDBu): 35.9 ± 4.2%
- EC50 ([2]; Cricetulus griseus, CHO, read-out: ERK1/2-phosphorylation Log EC50 (converted)): 0.00224 µM
- ERK1/2‐phosphorylation response in parent CHO cells ([2]; untransfected cells): stimulated ERK1/2‐phosphorylation responses
- ERK1/2‐phosphorylation % PDBu [7]: 32.9 ± 3.5%
- Affinity selectivity ratio α1B vs α1D [12]: 1.9 fold
- Kd [12]: 0.0646 µM
- Intracellular calcium release % ionomycin [8]: No response
- Intracellular calcium release Log EC50 [8]: No response
- Intracellular calcium release % ionomycin at 10 µM [9]: 10.0 ± 3.1%
- ERK1/2‐phosphorylation % PDBu [10]: 57.2 ± 4.6%
- ERK1/2‐phosphorylation % PDBu [3]: 50.1 ± 4.8%
- Kd [13]: 0.12 µM
- Affinity selectivity ratio α1A vs α1B [14]: 50.1 fold
- Affinity selectivity ratio α1A vs α1D [14]: 26.9 fold
- Kd [14]: 0.0024 µM
- Intracellular calcium release % ionomycin at 10 µM [4]: 6.4 ± 2.1%

Compound: Bromocryptine
- cAMP accumulation (in presence of forskolin) Fold increase [11]: No response
- cAMP accumulation % forskolin [6]: No response
- Intracellular calcium release % ionomycin [9]: 20.0 ± 3.0%
- Log efficacy ratio KD /EC50 [9]: −1.42
- ERK1/2‐phosphorylation % PDBu [10]: 61.2 ± 10.3%
